Assay type in all cases: in vivo
The subject of data set [1] is Digitaria ciliaris. Nature of the data set: Test Examples 2 and 5, Comparative Example 1: foliar spray herbicide efficacy. As to conditions: second to third leaf stages, sprayed, 63 g/ha; for Herbicide efficacy against digitaria ciliaris: greenhouse 16 days. As for the experimental part:
Here “untreated group” represents a group where a similar treatment procedure to that of the treated group except not using the test compound is done. One point one nine (1.19) mg of the present compound was dissolved 1 mL of a DMF solution containing 2% polyoxyethylene sorbitan monolaurate, and then 18 mL of water was added thereto. The mixture was sprayed uniformly to Digitaria ciliaris in the second to third leaf stages so that the applied dose was made 63 g/ha. Thereafter, the plants were cultivated in a greenhouse for 7 days, and the herbicide efficacy was assessed. […] One point one nine (1.19) mg of the present compound was dissolved 1 mL of a DMF solution containing 2% polyoxyethylene sorbitan monolaurate, and then 18 mL of water was added thereto. The mixture was sprayed uniformly to Digitaria ciliaris in the second to third leaf stages so that the applied dose was made 63 g/ha. Thereafter, the plants were cultivated in a greenhouse for 16 days, and the herbicide efficacy was assessed. The test was conducted similarly to the method described in Test Example 5 except for using a compound represented by the following formula (A): […]

Data set [2] concerns soybean. Description: Test Examples 4 and 5, Comparative Example 1: foliar spray phytotoxicity against useful plants. As to conditions: second to third leaf stages, sprayed, 63 g/ha; for Phytotoxicity against Soybean: greenhouse 16 days. As for the experimental part:
Here “untreated group” represents a group where a similar treatment procedure to that of the treated group except not using the test compound is done. One point one nine (1.19) mg of the present compound was dissolved 1 mL of a DMF solution containing 2% polyoxyethylene sorbitan monolaurate, and then 18 mL of water was added thereto. The mixture was sprayed uniformly to soybean in the second to third leaf stages so that the applied dose was made 63 g/ha. Thereafter, the plants were cultivated in a greenhouse for 7 days, and the phytotoxicity against useful plants was assessed. […] Also, 1.19 mg of the present compound was dissolved 1 mL of a DMF solution containing 2% polyoxyethylene sorbitan monolaurate, and then 18 mL of water was added thereto. The mixture was sprayed uniformly to soybean in the second to third leaf stages so that the applied dose was made 63 g/ha. Thereafter, the plants were cultivated in a greenhouse for 16 days, and the phytotoxicity against useful plants was assessed. The test was conducted similarly to the method described in Test Example 5 except for using a compound represented by the following formula (A): […]

In data set [3] the test system is Echinochloa crus-galli. Description: Test Example 1: foliar spray herbicide efficacy. As to conditions: second to third leaf stages, sprayed, 63 g/ha, greenhouse for days (number not given). As for the experimental part: Here “untreated group” represents a group where a similar treatment procedure to that of the treated group except not using the test compound is done. One point one nine (1.19) mg of the present compound was dissolved 1 mL of a DMF solution containing 2% polyoxyethylene sorbitan monolaurate, and then 18 mL of water was added thereto. The mixture was sprayed uniformly to Echinochloa crus-galli in the second to third leaf stages so that the applied dose was made 63 g/ha. Thereafter, the plants were cultivated in a greenhouse for days, and the herbicide efficacy was assessed.

Data set [4] has as its system Leptochloa chinensis. Description: Test Example 3: pot spray followed by flooding, herbicide efficacy. The conditions noted are these: first leaf stage, pot sprayed, 250 g/ha, flooded to 3 cm next day, greenhouse 20 days. How it is done: Here “untreated group” represents a group where a similar treatment procedure to that of the treated group except not using the test compound is done. Leptochloa chinensis seeds were seeded into a pot having a diameter of 9 cm and a death of 10 cm that was filled with steam-sterilized soil, and the plants were cultivated in a greenhouse until an emergence of the first leaf stage. Next, 4.75 mg of the present compound was dissolved into a 1 mL of DMF solution containing 2% polyoxyethylene sorbitan monolaurate, and then 18 mL of water was added thereto. The mixture was sprayed uniformly to the pot so that the applied dose was made 250 g/ha. After the pot was flooded to a depth of 3 cm on next day, the plants were cultivated in a greenhouse for 20 days, and the herbicide efficacy was assessed.

The source of these data is patent publication US10966427B2, “3-pyridyl oxyanilide compound and use therefor” (SUMITOMO CHEMICAL COMPANY, LIMITED, priority 2017, dated 2021).

For `Cn1c(C(F)(F)F)cc(=O)n(-c2cc(Oc3cccnc3OCC(=O)Oc3ccccc3)c(Cl)cc2F)c1=O` [Compound (A), reference compound], the “Herbicide efficacy against digitaria ciliaris” value in data set [1] is listed as 10 (100% of herbicide efficacy). Further, the “Phytotoxicity against Soybean” value in data set [2] is 10 (100% of phytotoxicity).
`CCOC(=O)COc1ncccc1Oc1cc(NC(=O)COc2ncccc2Oc2cc(-n3c(=O)cc(C(F)(F)F)n(C)c3=O)c(F)cc2Cl)c(F)cc1Cl` [Present compound]: the “score as herbicide efficacy” value in data set [3] is 9 (90% to 99% of herbicide efficacy); in data set [1] (Digitaria ciliaris, greenhouse 7 days), 9 (90% to 99% of herbicide efficacy); in data set [4], 10 (100% of herbicide efficacy). The “Herbicide efficacy against digitaria ciliaris” value in data set [1] is recorded as 10 (100% of herbicide efficacy). The “Phytotoxicity against Soybean” value in data set [2] is listed as 1 (10% to 19% of phytotoxicity). For the same molecule, in data set [2] (soybean, greenhouse 7 days), the score as phytotoxicity is recorded as 2 (20% to 29% of phytotoxicity).
